In US9447069B2, “ROR modulators and their uses” (INNOV17 LLC, priority 2012, dated 2016):

Experiments:
[1] = tested on: IL-17A; assay: TH17 cytokine inhibition measured by ELISA (IL-17A); assay type: cell-based; details: 120 h; human TH17 cells, 5 days differentiation, ELISA of supernatants, 0.1% DMSO
Description: (§1) Peripheral blood mononuclear cells (PBMCs) were sourced from freshly prepared leukocyte enriched plasma (buffy coat) from healthy volunteers from which PBMCs were isolated by density gradient centrifugation using Ficoll-Paque™ PLUS (GE Healthcare). Naïve CD4+ T cells were isolated using the Naïve CD4+ T cell Isolation Kit II (Miltenyi Biotec) as per manufacturer's instructions. CD4+ T cells were plated at 5×10^4 cells/well in 96 well plates pre-coated with immobilized human (h)-αCD3 antibody (eBioscience) then differentiated to TH17 cells using h-αCD28, h-αIFN-γ, h-αIL-4, h-IL-6, h-IL-23, h-IL-1β, h-TGF-β1 (eBioscience) and maintained in a cell culture incubator at 37° C. with 5% CO2 in TexMACS Medium (Miltenyi Biotec) supplemented with 1% Penicillin/Streptomycin (Lonza) over 5 days.
(§2) Human CD4+ T cells were differentiated to TH17 cells as described in the presence or absence of various concentrations of compounds in a final concentration of 0.1% DMSO in TexMACS medium. Supernatants were collected and stored at −20° C. until they were to be assayed for IL-17A, IL-17F, IL-17AF, IL-21 and/or IL-22 levels as determined by Ready-Set-Go ELISA kits (eBioscience) as per manufacturer's instructions. Endpoint absorbance was read at 450 nm and 570 nm according to manufacturer's instructions (eBioscience) using a microplate reader (Perkin Elmer). The percentage of cytokine inhibition was calculated with reference to DMSO treated cells and the IC50s were determined by GraphPad Prism software and presented in the table below.

[2] = target: T1, RORγ LBD (Homo sapiens, UniProt P51449); assay: TR-FRET D22 co-activator displacement from RORγ LBD; assay type: biochemical; set-up: purified GST-tagged (i) RORγ LBD or (ii) RORα LBD; purchased Life Technologies
T1 sequence (P51449 269-508 limits assumed): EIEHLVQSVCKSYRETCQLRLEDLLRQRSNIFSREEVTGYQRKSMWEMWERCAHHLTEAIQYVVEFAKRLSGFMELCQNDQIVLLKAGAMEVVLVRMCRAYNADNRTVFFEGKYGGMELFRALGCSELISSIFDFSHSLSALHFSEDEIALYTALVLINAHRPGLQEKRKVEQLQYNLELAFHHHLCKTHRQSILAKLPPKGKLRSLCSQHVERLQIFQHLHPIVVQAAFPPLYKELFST
Text: (§3) The Time-Resolved Fluorescence Resonance Energy Transfer (TR-FRET) assay kit (Life Technologies) was used to measure compound efficacy to disrupt or enhance ligand-mediated interaction of the co-activator and co-repressor peptides with the purified GST-tagged (i) RORγ LBD or (ii) RORα LBD. The RORγ LBD and RORα LBD each have a basal level of interaction with the co-activator D22 or co-repressor NCoR1-D2 in the absence of ligand, thus it is possible to identify compounds that inhibit or induce RORγ and/or RORα co-activator/co-repressor interactions, thus determining RORα, RORγ, or RORα/RORγ compound selectivity. The assay was performed as per manufacturer's instructions and TR-FRET was assessed 2 and 20 hours post-assay initiation. Compounds were identified to (i) have no impact on either co-activator displacement or […] from the assessed LBD (ii) promote co-activator displacement from the assessed LBD (iii) promote co-repressor recruitment to the assessed LBD or (iv) concurrently promote co-activator displacement from the assessed LBD and co-repressor recruitment to the assessed LBD.

[3] = TH17 cell viability (Prestoblue); assay type: cell-based; details: human; 1 μM compound, after 5 days, percentage of DMSO treated cells
Description: as §1
Cells were assayed for viability in the presence or absence of 1 μM compound using Prestoblue® Cell Viability Reagent (Life Technologies) as per manufacturer's instructions after 30 minutes incubation of TH17 cells with reagent. Absorbance was measured at 570 nm and 600 nm using a microplate reader (Perkin Elmer) and data were analyzed as per manufacturer's instructions. Cell viability was determined after 5 days and expressed as a percentage of DMSO treated cells.

[4] = target: T2, RORα LBD (Homo sapiens, UniProt P35398); assay: TR-FRET NCoR1-D2 co-repressor recruitment to RORα LBD; assay type: biochemical
T2 construct: purified GST-tagged (i) RORγ LBD or (ii) RORα LBD; purchased Life Technologies
T2 sequence (P35398 272-510 limits assumed): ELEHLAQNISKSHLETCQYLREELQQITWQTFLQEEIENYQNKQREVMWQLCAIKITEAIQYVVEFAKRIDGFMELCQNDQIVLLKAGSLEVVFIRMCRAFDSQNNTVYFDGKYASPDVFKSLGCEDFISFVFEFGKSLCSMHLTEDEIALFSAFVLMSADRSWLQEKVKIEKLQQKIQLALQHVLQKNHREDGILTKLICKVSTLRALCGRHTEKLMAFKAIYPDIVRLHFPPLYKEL
Text: as §3

[5] = tested on: TH17 cells; assay: TH17 cellular proliferation (Prestoblue); assay type: cell-based; details: Homo sapiens, 120 h; 3 μM compound, after 5 day TH17 differentiation, relative to DMSO treated TH17 cells; read-out: % change in TH17 cell number
Description: as §1
Cellular proliferation was assessed in the presence or absence of 3 μM compound using Prestoblue® Cell Viability Reagent (Life Technologies) as per manufacturer's instructions using absorbance as the output measured by a microplate reader (Perkin Elmer) after 30 minutes of incubation. A standard curve developed by plotting varying cell numbers versus absorbance was used to assess differences in cellular proliferation between compound treated or untreated cells after the 5 day TH17 differentiation period.

[6] = target: T2, RORα LBD; assay: TR-FRET D22 co-activator displacement from RORα LBD; assay type: biochemical
Text: as §3

[7] = target: T1, RORγ LBD; assay: TR-FRET NCoR1-D2 co-repressor recruitment to RORγ LBD; assay type: biochemical; set-up: purified GST-tagged (i) RORγ LBD or (ii) RORα LBD; purchased Life Technologies
Text: as §3

[8] = tested on: IL-22; assay: TH17 cytokine inhibition measured by ELISA (IL-22); assay type: cell-based; details: 120 h; human TH17 cells, 5 days differentiation, ELISA of supernatants, 0.1% DMSO
Description: as §1, §2

[9] = tested on: IL-17F; assay: TH17 cytokine inhibition measured by ELISA (IL-17F); assay type: cell-based; details: 120 h; human TH17 cells, 5 days differentiation, ELISA of supernatants, 0.1% DMSO
Description: as §1, §2

[10] = tested on: IL-17AF; assay: TH17 cytokine inhibition measured by ELISA (IL-17AF); assay type: cell-based; details: 120 h; human TH17 cells, 5 days differentiation, ELISA of supernatants, 0.1% DMSO
Description: as §1, §2

[11] = tested on: IL-21; assay: TH17 cytokine inhibition measured by ELISA (IL-21); assay type: cell-based; details: 120 h; human TH17 cells, 5 days differentiation, ELISA of supernatants, 0.1% DMSO
Description: as §1, §2

[12] = TR-FRET assessed 2 hr post-assay initiation, read-out: RORγ EC50 D22 co-activator displacement, 2 hr
[13] = TR-FRET assessed 20 hr post-assay initiation, read-out: RORγ EC50 D22 co-activator displacement, 20 hr
[14] = TR-FRET assessed 2 hr post-assay initiation, read-out: RORα EC50 NCoR1-D2 co-repressor recruitment, 2 hr
[15] = TR-FRET assessed 20 hr post-assay initiation, read-out: RORα EC50 NCoR1-D2 co-repressor recruitment, 20 hr
[16] = TR-FRET assessed 2 hr post-assay initiation, read-out: RORα EC50 D22 co-activator displacement, 2 hr
[17] = TR-FRET assessed 20 hr post-assay initiation, read-out: RORα EC50 D22 co-activator displacement, 20 hr
[18] = TR-FRET assessed 2 hr post-assay initiation, read-out: RORγ EC50 NCoR1-D2 co-repressor recruitment, 2 hr
[19] = TR-FRET assessed 20 hr post-assay initiation, read-out: RORγ EC50 NCoR1-D2 co-repressor recruitment, 20 hr

Compound	IC50 [1] [µM]	EC50 [2, 12] [µM]	EC50 [2, 13] [µM]	viability at 5 days, 1 µM [3] [%]	EC50 [4, 14] [µM]	EC50 [4, 15] [µM]	inhibition at 3 µM [5] [%]	EC50 [6, 16] [µM]	EC50 [6, 17] [µM]	EC50 [7, 18] [µM]	EC50 [7, 19] [µM]	IC50 [8] [µM]	IC50 [9] [µM]	IC50 [10] [µM]	IC50 [11] [µM]	melting point [°C]
Cc1cc(-c2ccc3c(c2)CCN3Cc2ccc(C(O)(C(F)(F)F)C(F)(F)F)cc2)[nH]n1 [Example 7, 1,1,1,3,3,3-hexafluoro-2-(4-((5-(3-methyl-1H-pyrazol-5-yl)indolin-1-yl)methyl)phenyl)propan-2-ol]	< 10	< 30	< 30	> 80	> 30	< 30	> 50	< 30	< 30	< 30	< 30	< 10	< 10	< 10	< 10	
OC(c1ccc(CN2CCc3cc(-c4cn[nH]c4)ccc32)cc1)(C(F)(F)F)C(F)(F)F [Example 8, 2-(4-((5-(1H-pyrazol-4-yl)indolin-1-yl)methyl)phenyl)-1,1,1,3,3,3-hexafluoropropan-2-ol]	< 10	< 30	< 30	> 80	< 30	> 30	> 50	> 30	< 30	< 30	> 30	< 10	< 10	< 10	< 10	191 to 195
Cc1nnc(-c2ccc3c(c2)CCN3Cc2ccc(C(O)(C(F)(F)F)C(F)(F)F)cc2)o1 [Example 9, 1,1,1,3,3,3-hexafluoro-2-(4-((5-(5-methyl-1,3,4-oxadiazol-2-yl)indolin-1-yl)methyl)phenyl)propan-2-ol]	< 10	> 30	> 30	> 80	> 30	< 30	> 50	> 30	< 30	< 30	> 30	< 10	< 10	> 10	< 10	
